Measurements as given in US11723948B2, “Method for treating and prognosing cancer” (INSERM (INSTITUT NATIONAL DE LA SANTE ET DE LA RECHERCHE …, priority 2015, dated 2023).

Legend:
[1] = system: ZR-75-1; details: non-invasive breast cancer cell line ZR-75-1; cited from earlier work
[2] = system: MCF-7 cells; details: non-invasive breast cancer cell line MCF-7; cited from earlier work
[3] = system: PCTC #1; test: ELISA of global DNA methylation (5-methylcytosine); format: cell-based, human; details: PCTC #1 treated during 30 days
Description: DNA was extracted by using the QiaAmp DNA mini Kit (Qiagen, France). Next, global DNA methylation was estimated by quantifying the presence of 5-methylcytosine using Methylamp Global DNA methylation Quantification kit (Euromedex-Epigentek, France) according to the manufacturers's instructions.
The analysis of all interactions being impossible, we postulated that if P1 inhibited a large number of DNMT3A/D3A-BP interactions, an hypomethylation phenotype would be observable. To observe the putative P1-induced DNA hypomethylation, PCTC #1 were treated during 30 days with P1 (data not shown). Other DNMT inhibitors (5-aza-2-deoxycytidine (5-aza), theaflavin 3,3 digallate (a DNMT3A inhibitor, hereafter called TFD), or peptides (UP peptide, a peptide inhibiting the DNMT1/PCNA/UHRF1 interactions)) were also used as control conditions.

[4] = system: primary cultured tumor cells (PCTC) from GBM; test: Collagen-based cell invasion assay; parameters: species or system human; details: 72 h incubation
Protocol: All of the procedures were followed according to the manufacturer's instructions (QCM 24-Well Collagen-Based Cell Invasion Assay, Millipore, France). In brief, 200 μl serum-free medium containing 2×10^5 cells were seeded into the invasion chamber and placed into the 24 well plate containing 500 μl complete medium. After 72 h incubation at 37° C., media was removed from the chamber, and cells were stained by putting the chamber in staining solution for 20 min at room temperature. Non-invaded cells were carefully removed from the top-side of the chamber. Stained chamber was inserted into a clean well containing 200 μl of extraction buffer for 15 min at room temperature. 100 μl extracted stained solution from the chamber was transferred into the 96 well plate and optical density was measured at 560 nm with a spectrophotometer.

[5] = system: primary cultured tumor cells (PCTC) from GBM; test: Temozolomide+irradiation-induced cell death (trypan blue); format: cell-based, human; details: temozolomide 25 μM and irradiation 2 Gy
Protocol: Percentages of cell death were evaluated by using a Trypan Blue Stain 0.4%, and the Countess® Automated Cell Counter (Life Technologies, France). Cell death was induced using temozolomide (25 μM) and irradiation (2 Gy) such as previously described.
To evaluate the impact of the P1-induced disruption of the DNMT3A/ISGF3γ interactions on the sensitivity of apoptosis induced by a therapeutic treatment, we measured the percentage of temozolomide+irradiation-induced cell death since temozolomide (TMZ) and irradiation are conjugated in anti-GBM treatment [Cheray M et al., 2013 and Louis D et al., 2007]. […] Thus, we conclude that P1 acts as a sensitizer of the temozolomide+irradiation-induced cell death.

[6] = system: primary cultured tumor cells (PCTC) from GBM; test: Migration assay, scratch test; format: cell-based, human; details: 24 hours, mitomycin C pre-treatment
Protocol: Cell migration assay was performed using a scratch technique. Cells were plated in 6-well plates at 80-90%, and were treated with 10 μg/ml mitomycin C (Sigma, France) for 2 hours (in order to remove the influence of cell proliferation). Cells were then scratched. Cell migration was monitored by microscopy. The images acquired for each sample were analyzed quantitatively. For each image, distances between one side of scratch and the other were measured. By comparing the images from time 0 to the last time point (24 hours), we obtain the distance of each scratch closure on the basis of the distances that are measured.
Impact of the P1-induced disruption of the DNMT3A/ISGF3γ interactions on migration capability was next estimated by performing a scratch test assay.

[7] = system: primary cultured tumor cells (PCTC) from GBM; test: Proliferation assay, doubling time; format: cell-based, human; details: counted every 24 h over 120 h
Protocol: Doubling time (i.e. the period of time required for a quantity to double in size) was calculated by using the Doubling Time Online Calculator website (Roth V. 2006, http://www.doubling-time.com/compute.php) and counting the proliferation of […] over 120 hours. Cell number was determined, every 24 h over 120 h, using the Countess® Automated Cell Counter (Life Technologies, France).
To estimate the impact of the P1-induced disruption of DNMT3A/ISGF3γ interactions on proliferation, we calculated the doubling time.

[8] = target: T1, DNMT3A/ISGF3γ interaction (Homo sapiens, UniProt Q00978); test: Competitive pull-down assay of the DNMT3A/ISGF3γ interaction; format: binding; details: for inhibition of the DNMT3A/ISGF3γ interaction: peptides pre-incubated 1 h at 37° C., FIG. 2A
T1 construct: GST
T1 sequence (Q00978 1-393): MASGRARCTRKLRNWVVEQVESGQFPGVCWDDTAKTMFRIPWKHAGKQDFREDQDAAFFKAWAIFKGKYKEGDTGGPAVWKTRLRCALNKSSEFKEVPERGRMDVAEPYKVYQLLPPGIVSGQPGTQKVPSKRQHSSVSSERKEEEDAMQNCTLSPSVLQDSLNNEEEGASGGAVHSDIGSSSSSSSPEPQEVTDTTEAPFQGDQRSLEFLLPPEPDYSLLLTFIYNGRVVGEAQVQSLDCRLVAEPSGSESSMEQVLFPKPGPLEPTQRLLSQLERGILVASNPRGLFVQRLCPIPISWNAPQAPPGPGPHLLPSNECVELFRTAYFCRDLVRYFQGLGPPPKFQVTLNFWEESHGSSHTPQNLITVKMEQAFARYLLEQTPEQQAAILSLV
Protocol: Pull-down assays were performed by using the GST/His Tagged-Protein Interaction Pull-Down Kits (Thermo Scientific, France). Briefly, 100 μg of bait protein were immobilized on column via an incubation at 4° C. for 1 h with gentle mixing. After washing, 1 μg of prey protein was added for 1 h at 4° C. with gentle rocking motion on a rotating platform. After washes and elution, the “bait-prey” interaction was analyzed by SDS-PAGE and Western blot methods. Competitive pull-down experimentations were realized by pre-incubating considered peptides for 1 h at 37° C.
In brief, proteins were size fractionated by sodium dodecyl sulfate-polyacrylamide gel electrophoresis. Proteins were transferred onto nitrocellulose or PVDF membrane. Saturation and blotting were realized by using SNAP I.™ Protein Detection System (Millipore, France). The detection of proteins was performed using ECL™ (Amersham Biosciences, France) and/or SuperSignal west femto Maximum Sensitivity (Thermo Scientific, France) chemilumenescence reagents. The detection of proteins was performed using the FusionX7 Imager (Fisher Scientific, France).

[9] = target: T2, DNMT3A/GATA1 interaction (Homo sapiens, UniProt P15976); test: P-LISA in PCTC #1, DNMT3A/GATA1; format: cell-based
T2 construct: endogenous in cells; host or cells: PCTC #1 (primary cultured glioblastoma tumor cells)
Protocol: (§1) Cells were cultured for 24 h on cover slip. Cells were then fixed with 4% paraformaldehyde in PBS pH7.4 for 15 min at room temperature. Permeabilization is performed with PBS containing 0.5% Triton X-100 for 20 min at room temperature. Blocking, staining, hybridization, ligation, amplification and detection steps were realized according to manufacturer's instructions (Olink Bioscience, Sweden). All incubations were performed in a humidity chamber. Amplification and detection steps were performed in dark room. Fluorescence was visualized by using the Axiovert 200M microscopy system (Zeiss, Le Pecq, France) with ApoTome module (X63 and numerial aperture 1.4). Preparations were mounted by using ProLong Gold antifade reagent with DAPI (Life Technologies, France). Pictures acquisition was realized in structured illumination microscopy. […] Finally, the images were analyzed by using the freeware “BlobFinder” available for download from www.cb.uu.se/˜amin/BlobFinder. […]
(§2) For electroporation, NLS sequence was added to peptides. […] Electroporation efficiency for each cell line was initially determined by flow cytometry by uptake of the fluorescent dye, lucifer yellow (Sigma, France). […]
(§3) P1 was designed to inhibit the DNMT3A/ISGF3γ interactions. […] To investigate this point, we analyzed the effect of P1 on the DNMT3A/D3A-BP interactions of interest. […]

[10] = system: PCTC-GBM glioma cells having high level of DNMT3A/ISGF3γ interactions; test: Established subcutaneous glioma tumors in swiss nude mice; format: in vivo; details: treatment from tumor volume 100 mm^3, after 3 weeks of treatment; FIG. 3B
Protocol: A. Design of the experiment. […] Then, mice were treated with indicated treatment. D: day, w: week, it: intra-tumoral, ip: Intraperitoneal.
B. Graph illustrates the impact of the 4 considered treatments on tumor weight of established tumors. Open circles represent mice. Black circles represent the average±standard deviation obtained for each treatment. p values were obtained by performing a t test.
Cultured cells were harvested by trypsinization, washed and resuspended in saline buffer. Cell suspensions were injected s.c. as 2.106 cells in 0.05 ml of PBS with equal volume of matrigel matrix (Becton Dickinson, France) in the flank of 7/8-week-old Nude NMRI-nu female mice (Janvier, France). After tumor establishment, mice were treated with temozolomide and/or peptides via intra-tumor injection (it). To obtain tumor weigh, each tumor was surgically removed and is weighed. All experimental procedures using animals were realized in accordance with the guidelines of Institutional Animal Care and the French National Committee of Ethics.
Standard anti-GBM treatment using temozolomide as chemotherapeutic agent, we next investigated the effect of a treatment associating P1 peptide with TMZ in a swiss nude mice model of established tumors.

[11] = target: T3, DNMT3A/HDAC1 interaction (Homo sapiens, UniProt Q13547); test: P-LISA in PCTC #1, DNMT3A/HDAC1; format: cell-based
T3 construct: endogenous in cells; host or cells: PCTC #1 (primary cultured glioblastoma tumor cells)
Protocol: as §1, §2, §3

[12] = system: DNMT3A/AP2γ interaction; test: P-LISA in PCTC #1, DNMT3A/AP2γ; format: cell-based, human
Protocol: as §1, §2, §3

[13] = target: T4, DNMT3A/ISGF3γ interactions (Homo sapiens, UniProt Q00978); test: Proximity Ligation In Situ Assay (P-LISA) in PCTC #1, DNMT3A/ISGF3γ; format: cell-based; details: PCTC #1, P-LISA 12 hr after electroporation of peptide
T4 construct: we used a PCTC (named PCTC #1); endogenous in cells; host or cells: PCTC #1 (primary cultured glioblastoma tumor cells)
T4 sequence (Q00978 1-393): T1 sequence (Q00978 1-393)
Protocol: Cells were cultured for 24 h on cover slip. Cells were then fixed with 4% paraformaldehyde in PBS pH7.4 for 15 min at room temperature. Permeabilization is performed with PBS containing 0.5% Triton X-100 for 20 min at room temperature. Blocking, staining, hybridization, ligation, amplification and detection steps were realized according to manufacturer's instructions (Olink Bioscience, Sweden). All incubations were performed in a humidity chamber. Amplification and detection steps were performed in dark room. Fluorescence was visualized by using the Axiovert 200M microscopy system (Zeiss, Le Pecq, France) with ApoTome module (X63 and numerial aperture 1.4). Preparations were mounted by using ProLong Gold antifade reagent with DAPI (Life Technologies, France). Pictures acquisition was realized in structured illumination microscopy. After decovolving (3.5 Huygens Essential software (SVI)), 3D view was obtained by using Amira.4.1.1 program. Finally, the images were analyzed by using the freeware “BlobFinder” available for download from www.cb.uu.se/˜amin/BlobFinder. Thus, we obtained either number of signals per nuclei since nuclei can be automatically identified.
as §2

[14] = system: MGMT; test: qMSP of MGMT methylation; format: cell-based, human; details: cells treated with peptide
Description: In glioma, MGMT methylation is associated with a good responsive of anti-glioma treatment including TMZ and irradiation [Esteller M et al., 2000 and Hegi M et al., 2005].

T3 sequence (Q13547 whole entry): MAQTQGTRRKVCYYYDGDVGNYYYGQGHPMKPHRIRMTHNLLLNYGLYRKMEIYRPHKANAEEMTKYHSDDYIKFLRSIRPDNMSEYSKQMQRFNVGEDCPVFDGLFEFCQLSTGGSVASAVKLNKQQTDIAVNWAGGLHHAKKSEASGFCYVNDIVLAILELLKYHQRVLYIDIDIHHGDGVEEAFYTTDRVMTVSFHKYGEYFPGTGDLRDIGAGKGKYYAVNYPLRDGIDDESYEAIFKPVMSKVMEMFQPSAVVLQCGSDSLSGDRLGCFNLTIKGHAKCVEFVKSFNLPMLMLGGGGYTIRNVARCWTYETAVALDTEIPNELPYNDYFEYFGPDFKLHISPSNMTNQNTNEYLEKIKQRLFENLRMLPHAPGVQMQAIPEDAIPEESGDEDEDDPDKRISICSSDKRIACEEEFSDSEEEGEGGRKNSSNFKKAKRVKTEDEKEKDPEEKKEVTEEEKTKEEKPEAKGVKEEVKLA
T2 sequence (P15976 whole entry): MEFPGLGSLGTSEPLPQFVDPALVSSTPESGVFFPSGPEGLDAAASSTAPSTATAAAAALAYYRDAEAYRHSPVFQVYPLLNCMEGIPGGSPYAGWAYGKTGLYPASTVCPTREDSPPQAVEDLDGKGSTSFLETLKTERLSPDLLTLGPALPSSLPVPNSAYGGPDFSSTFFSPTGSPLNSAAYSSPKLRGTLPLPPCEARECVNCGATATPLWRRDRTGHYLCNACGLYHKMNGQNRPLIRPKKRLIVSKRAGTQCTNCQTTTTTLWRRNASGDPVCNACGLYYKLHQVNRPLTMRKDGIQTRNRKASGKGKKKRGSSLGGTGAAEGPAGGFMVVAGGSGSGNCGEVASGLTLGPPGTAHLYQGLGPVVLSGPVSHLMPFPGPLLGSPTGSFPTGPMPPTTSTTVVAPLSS

Molecule | invasiveness [1] | invasiveness [2] | global level of 5-methylcytosine [3] | cell invasion [4] | percentage of temozolomide+irradiation-induced cell death [5] | cell migration [6] | doubling time of cells [7] | inhibition of the DNMT3A/ISGF3γ interaction [8] | integrity of the DNMT3A/GATA1 interaction [9] | tumor growth (tumor weight/volume) of established tumors [10] | integrity of the DNMT3A/HDAC1 interaction [11] | integrity of the DNMT3A/AP2γ interaction [12] | percentage of cell death compared with the other treatment ([5]; P1 versus TDF) | red dots representing the DNMT3A/ISGF3γ interactions [13] | DNMT3A/ISGF3γ interaction with increasing peptide concentration ([8]; increasing concentration of peptide, FIG. 2B) | methylation level of MGMT [14]
Nc1ncn([C@H]2C[C@H](O)[C@@H](CO)O2)c(=O)n1 [5-aza, 5-aza-2-deoxycytidine] | increased the invasiveness | increased the invasiveness | decreased the global level of DNA methylation | – | – | – | – | – | – | – | – | – | – | – | – | –
O=C(O[C@@H]1Cc2c(O)cc(O)cc2O[C@@H]1c1cc(O)c(=O)c2c(O)c(O)cc([C@H]3Oc4cc(O)cc(O)c4C[C@H]3OC(=O)c3cc(O)c(O)c(O)c3)c2c1)c1cc(O)c(O)c(O)c1 [TFD, theaflavin 3,3 digallate, reference compound] | – | – | decreased the global level of DNA methylation | promoted the cell invasion | increased | had no effect on cell migration | no effect | – | – | – | – | – | – | – | – | –
RPMPRLTAQAGAPYYI (Synthetic P1mut) [P1^mut, mutated P1 peptide, reference compound] | – | – | – | – | – | – | – | does not inhibit the DNMT3A/ISGF3γ interaction | – | – | – | – | – | – | – | –
RPMPRLTFQAGDPYYI (Synthetic P1) | – | – | had not effect | unmodified the cell invasion characteristic | increased | decreased cell migration | no effect | inhibited the DNMT3A/ISGF3γ interaction | no effect | no statistical difference | no effect | no effect | higher than the one obtained with TDF | decreased | decreased | remains unchanged
